The values below come from the RepoRT retention time repository (doi:10.1021/acs.analchem.2c02893).

The series in a line: RP, Thermo Scientific Acclaim RSLC 120 C18, 100 × 2.1 mm, 2.2 µm, 30 °C, 0.2 mL/min, estimated dead time 1.1 min; A: 90% water + 10% methanol + 0.01% formic acid + 5 mM ammonium formate, pH 3.61; B: methanol + 0.01% formic acid + 5 mM ammonium formate, pH 3.61; gradient (min/%B) 0/1 1/1 2/39 13/99.9 15/99.9 15.1/1 20.1/1. The following applies: stereoisomer not certain.

For `CCCOc1nc2ccc(I)cc2c(=O)n1CCC` [Proquinazid], the LC retention time is 13.3 min.

In the case of `CCCN(CCC)C(=O)SCc1ccccc1` [Prosulfocarb], the LC retention time is 11.9 min. The same measure for `COc1nc(C)nc(NC(=O)NS(=O)(=O)c2ccccc2CCC(F)(F)F)n1` [Prosulfuron]: 8.57 min; for `OC(Cc1ccccc1Cl)(Cn1cncn1)C1(Cl)CC1` (stereo unspecified) [Prothioconazole-desethio]: 10.5 min; for `OC(Cc1ccccc1Cl)(Cn1[nH]cnc1=S)C1(Cl)CC1` (stereo unspecified) [Prothioconazole]: 11.2 min. The same measure for `CN(C)CCCN1c2ccccc2Sc2cccnc21` [Prothipendyl]: 7.21 min. The same measure for `CCCc1cc(C(N)=S)ccn1` [Protionamide]: 6.36 min; for `CNCCCC1c2ccccc2C=Cc2ccccc21` [Protriptyline]: 7.99 min.

`CC(O)Cn1cnc2c1c(=O)n(C)c(=O)n2C` (stereo unspecified) [Proxyphylline]: the LC retention time was 4.34 min.

Consider `CN(C)CCc1c[nH]c2cccc(O)c12` [Psilocin], for which the LC retention time was 3.29 min. The figure for `CC1=NNC(=O)N(N=Cc2cccnc2)C1` [Pymetrozine] is 4.01 min. The same measure for `COC(=O)N(OC)c1ccccc1COc1ccn(-c2ccc(Cl)cc2)n1` [Pyraclostrobin]: 11.2 min. For the compound `COC1(C)CC(c2ccccc2)c2c(c3ccccc3oc2=O)O1` (stereo unspecified) [Pyranocoumarin], the LC retention time was 11.1 min. The same measure for `Cc1nnc2n1-c1ccc(Br)cc1C(c1ccccn1)=NC2` [Pyrazolam]: 6.27 min; for `CCOC(=O)c1cn2nc(OP(=S)(OCC)OCC)cc2nc1C` [Pyrazophos]: 11.4 min. As to `Cc1nn(C)c(OCC(=O)c2ccccc2)c1C(=O)c1ccc(Cl)cc1Cl` [Pyrazoxyfen], the LC retention time was 10.9 min.

In the case of `C=CC=CCC1=C(C)C(OC(=O)C2C(C=C(C)C(=O)OC)C2(C)C)CC1=O` (stereo unspecified) [Pyrethrin II], the LC retention time is 11.7 min. For the compound `C=CC=CCC1=C(C)C(OC(=O)C2C(C=C(C)C)C2(C)C)CC1=O` (stereo unspecified) [Pyrethrin I], the LC retention time was 12.9 min.

As to `CC=CCC1=C(C)C(OC(=O)C2C(C=C(C)C(=O)OC)C2(C)C)CC1=O` (stereo unspecified) [Pyrethrins: Cinerin II], the LC retention time is 11.6 min. For the compound `CC=CCC1=C(C)C(OC(=O)C2C(C=C(C)C)C2(C)C)CC1=O` (stereo unspecified) [Pyrethrins: Cinerin I], the LC retention time was 12.9 min. The same measure for `CCC=CCC1=C(C)C(OC(=O)C2C(C=C(C)C(=O)OC)C2(C)C)CC1=O` (stereo unspecified) [Pyrethrins: Jasmolin II]: 12.2 min; for `CCC=CCC1=C(C)C(OC(=O)C2C(C=C(C)C)C2(C)C)CC1=O` (stereo unspecified) [Pyrethrins: Jasmolin I]: 13.3 min. The figure for `CN(C)CCN(Cc1ccccc1)c1ccccn1` [Pyribenzamine (Tripelenamine. Azaron)] is 5.86 min.

As for `COc1cccc(N(C)C(=S)Oc2cccc(C(C)(C)C)c2)n1` [Pyributicarb], the LC retention time is 12.5 min.

Turning to `CC(C)(C)c1ccc(CSc2cnn(C(C)(C)C)c(=O)c2Cl)cc1` [Pyridaben], the LC retention time was 13.4 min. The figure for `CCOP(=S)(OCC)Oc1ccc(=O)n(-c2ccccc2)n1` [Pyridaphenthion] is 9.79 min. The same measure for `CCCCCCCCSC(=O)Oc1cc(Cl)nnc1-c1ccccc1` [Pyridate]: 13.8 min; for `Cc1ncc(CO)c(CO)c1O` [Pyridoxine]: 2.18 min. The same measure for `CON=C(Cc1cccnc1)c1ccc(Cl)cc1Cl` [Pyrifenox]: 10.1 min; for `CCc1nc(N)nc(N)c1-c1ccc(Cl)cc1` [Pyrimethamine]: 5.92 min; for `Cc1cc(C)nc(Nc2ccccc2)n1` [Pyrimethanil]: 9.44 min. For `CCOCCc1ccc(OCCNc2ncnc(CC)c2Cl)c(C)c1C` [Pyrimidifen], the LC retention time was 12.5 min. The figure for `Cc1cc(=O)[nH]c(C(C)C)n1` [Pyrimidinol] is 4.49 min; for `CC(COc1ccc(Oc2ccccc2)cc1)Oc1ccccn1` (stereo unspecified) [Pyriproxyfen] it is 12.6 min; for `Cc1ncc(CSSCc2cnc(C)c(O)c2CO)c(CO)c1O` [Pyritinol] it is 5.54 min.

With `CCCC(C(=O)c1ccc(C)cc1)N1CCCC1` (stereo unspecified) [Pyrovalerone], the LC retention time was 6.03 min. The figure for `OCCOCCN1CCN(C2=Nc3ccc(O)cc3Sc3ccccc32)CC1` [Quetiapine-Hydroxy] is 4.99 min. On to `OCCOCCN1CCN(C2=Nc3ccccc3Sc3ccccc32)CC1` [Quetiapine], for which the LC retention time is 7.26 min. `CCCN1CC(NS(=O)(=O)N(CC)CC)CC2Cc3c(O)cccc3CC21` (stereo unspecified) [Quinagolide]: the LC retention time was 5.24 min.

Consider `CCOP(=S)(OCC)Oc1cnc2ccccc2n1` [Quinalphos], for which the LC retention time was 10.8 min. In the case of `CCOC(=O)C(CCc1ccccc1)NC(C)C(=O)N1Cc2ccccc2CC1C(=O)O` (stereo unspecified) [Quinapril], the LC retention time is 9.03 min. The figure for `O=C(O)c1c(Cl)ccc2cc(Cl)cnc12` [Quinclorac] is 4.9 min. The figure for `Cc1cnc2c(C(=O)O)c(Cl)ccc2c1` [Quinmerac] is 4.75 min.

Take `Fc1ccc(Oc2ccnc3cc(Cl)cc(Cl)c23)cc1` [Quinoxyphen]: the LC retention time was 12.8 min. The figure for `CCOC(=O)C(C)Oc1ccc(Oc2cnc3cc(Cl)ccc3n2)cc1` (stereo unspecified) [Quizalofop-ethyl] is 12.1 min.

For the compound `CC(Oc1ccc(Oc2cnc3cc(Cl)ccc3n2)cc1)C(=O)O` (stereo unspecified) [Quizalofop], the LC retention time is 9.62 min.

Take `COc1ccc(C(=O)c2cn(CCCCC(=O)O)c3ccccc23)cc1` [RCS-4-M-5-COOH-Pentyl]: the LC retention time is 8.81 min. The figure for `COc1ccc(C(=O)c2cn(CCCCCO)c3ccccc23)cc1` [RCS-4-M-5-OH-Pentyl] is 9.18 min; for `CCCCCn1cc(C(=O)c2ccccc2OC)c2ccccc21` [RCS-4-ortho] it is 11.2 min; for `CCCCCn1cc(C(=O)c2ccc(OC)cc2)c2ccccc21` [RCS-4] it is 11.8 min. The same measure for `COc1ccccc1CC(=O)c1cn(CCC2CCCCC2)c2ccccc12` [RCS-8]: 13 min; for `Cc1cc(C)n(-c2nc3ccccc3[nH]2)n1` [Rabenzazole]: 8.27 min; for `COCCCOc1ccnc(CS(=O)c2nc3ccccc3[nH]2)c1C` (stereo unspecified) [Rabeprazole]: 7.52 min. The same measure for `CC(CCc1ccc(O)cc1)NCC(O)c1ccc(O)cc1` (stereo unspecified) [Ractopamine]: 4.39 min; for `Cc1c(NC(C)C)c(=O)n(-c2ccccc2)n1C` [Ramifenazone]: 5.72 min; for `CCOC(=O)C(CCc1ccccc1)NC(C)C(=O)N1C(C(=O)O)CC2CCCC21` (stereo unspecified) [Ramipril]: 8.56 min. As for `CNC(=C[N+](=O)[O-])NCCSCc1ccc(C[N+](C)(C)[O-])o1` [Ranitidine-N-oxide], the LC retention time is 3.43 min. The figure for `CNC(=C[N+](=O)[O-])NCCSCc1ccc(CN(C)C)o1` [Ranitidine] is 3.14 min.

Consider `COC(=O)C1=COC(C)C2CN3CCc4c([nH]c5ccccc45)C3CC12` (stereo unspecified) [Raubasine], for which the LC retention time is 6.66 min. The same measure for `CCOc1ccccc1OC(c1ccccc1)C1CNCCO1` (stereo unspecified) [Reboxetine]: 7.28 min; for `CCN1CCCC1CNC(=O)c1c(OC)ccc(Br)c1OC` (stereo unspecified) [Remoxipride]: 5.06 min; for `CCOc1cc(CC(=O)NC(CC(C)C)c2ccccc2N2CCCCC2)ccc1C(=O)O` (stereo unspecified) [Repaglinide]: 11.9 min.

For the compound `Cn1c(=O)c2c(ncn2CCCNCC(O)c2cc(O)cc(O)c2)n(C)c1=O` (stereo unspecified) [Reproterol], the LC retention time is 3.56 min. The figure for `COC(=O)C1C2CC3c4[nH]c5cc(OC)ccc5c4CCN3CC2CC(OC(=O)c2cc(OC)c(OC)c(OC)c2)C1OC` (stereo unspecified) [Reserpine] is 8.47 min; for `Oc1ccc(C=Cc2cc(O)cc(O)c2)cc1` [Resveratrol] it is 5.93 min; for `CC=C1CC(C)C(O)(CO)C(=O)OCC2=CC[N+]3([O-])CCC(OC1=O)C23` (stereo unspecified) [Retrorsine-N-oxide] it is 4.33 min. The same measure for `CC=C1CC(C)C(O)(CO)C(=O)OCC2=CCN3CCC(OC1=O)C23` (stereo unspecified) [Retrorsine]: 4.01 min.

For the compound `NC(=O)c1ncn(C2OC(CO)C(O)C2O)n1` (stereo unspecified) [Ribavirin], the LC retention time is 1.36 min. The figure for `C1COC(NC(C2CC2)C2CC2)=N1` [Rilmenidine] is 4.4 min. The figure for `Nc1nc2ccc(OC(F)(F)F)cc2s1` [Riluzole] is 9.12 min. The same measure for `Cc1c(C(=O)NN2CCCCC2)nn(-c2ccc(Cl)cc2Cl)c1-c1ccc(Cl)cc1` [Rimonabant]: 12.8 min; for `CCS(=O)(=O)c1cccnc1S(=O)(=O)NC(=O)Nc1nc(OC)cc(OC)n1` [Rimsulfuron]: 7.09 min. For `Cc1nc2n(c(=O)c1CCN1CCC(c3noc4cc(F)ccc34)CC1)CCCC2O` (stereo unspecified) [Risperidone-9-OH (Paliperidone)], the LC retention time is 5.33 min.

On to `Cc1nc2n(c(=O)c1CCN1CCC(c3noc4cc(F)ccc34)CC1)CCCC2` [Risperidone], for which the LC retention time is 5.88 min. The figure for `O=C(O)C(c1ccccc1)C1CCCCN1` (stereo unspecified) [Ritalinic acid] is 4.61 min; for `CC(NCCc1ccc(O)cc1)C(O)c1ccc(O)cc1` (stereo unspecified) [Ritodrine] it is 3.79 min.
